Measured values taken from ChEMBL document CHEMBL5532698, “2,3-Dihydroquinazolin-4(1H)-ones and quinazolin-4(3H)-ones as broad-spectrum cytotoxic agents and their impact on tubulin polymerisation” (RSC Med Chem, 2024).
Calls of active or inactive are those of the source. The rule behind the calls is not given here.

Legend:
[1] = Cytotoxicity against human MCF-10A cells assessed as cell growth inhibition incubated for 72 hrs by MTT assay; type: toxicity, cell-based
BE(2)-C [2] = experiment: Antiproliferative activity against human BE2C cells assessed as cell growth inhibition at 25 uM incubated for 72 hrs by MTT assay relative to control; type: functional
MIA PaCa-2 [3] = experiment: Antiproliferative activity against human MIA PaCa-2 cells assessed as cell growth inhibition at 25 uM incubated for 72 hrs by MTT assay relative to control; type: functional
NCI-H460 [4] = experiment: Antiproliferative activity against human NCI-H460 cells assessed as cell growth inhibition incubated for 72 hrs by MTT assay; type: functional
[5] = Antiproliferative activity against human SJG2 cells assessed as cell growth inhibition incubated for 72 hrs by MTT assay; type: functional; conditions: SJ-G2
MCF7 [6] = experiment: Antiproliferative activity against human MCF7 cells assessed as cell growth inhibition at 25 uM incubated for 72 hrs by MTT assay relative to control; type: functional
U-87 MG [7] = experiment: Antiproliferative activity against human U87 cells assessed as cell growth inhibition incubated for 72 hrs by MTT assay; type: functional, U-87MG ATCC
A2780 [8] = experiment: Antiproliferative activity against human A2780 cells assessed as cell growth inhibition at 25 uM incubated for 72 hrs by MTT assay relative to control; type: functional
HT-29 [9] = experiment: Antiproliferative activity against human HT-29 cells assessed as cell growth inhibition incubated for 72 hrs by MTT assay; type: functional
HT-29 [10] = experiment: Antiproliferative activity against human HT-29 cells assessed as cell growth inhibition at 25 uM incubated for 72 hrs by MTT assay relative to control; type: functional
A-431 [11] = experiment: Antiproliferative activity against human A-431 cells assessed as cell growth inhibition incubated for 72 hrs by MTT assay; type: functional
[12] = Cytotoxicity against human MCF-10A cells assessed as cell growth inhibition at 25 uM incubated for 72 hrs by MTT assay relative to control; type: toxicity, cell-based
DU-145 [13] = experiment: Antiproliferative activity against human DU-145 cells assessed as cell growth inhibition incubated for 72 hrs by MTT assay; type: functional
NCI-H460 [14] = experiment: Antiproliferative activity against human NCI-H460 cells assessed as cell growth inhibition at 25 uM incubated for 72 hrs by MTT assay relative to control; type: functional
A2780 [15] = experiment: Antiproliferative activity against human A2780 cells assessed as cell growth inhibition incubated for 72 hrs by MTT assay; type: functional
U-87 MG [16] = experiment: Antiproliferative activity against human U87 cells assessed as cell growth inhibition at 25 uM incubated for 72 hrs by MTT assay relative to control; type: functional, U-87MG ATCC
DU-145 [17] = experiment: Antiproliferative activity against human DU-145 cells assessed as cell growth inhibition at 25 uM incubated for 72 hrs by MTT assay relative to control; type: functional
MCF7 [18] = experiment: Antiproliferative activity against human MCF7 cells assessed as cell growth inhibition incubated for 72 hrs by MTT assay; type: functional
[19] = Antiproliferative activity against human SJG2 cells assessed as cell growth inhibition at 25 uM incubated for 72 hrs by MTT assay relative to control; type: functional; conditions: SJ-G2
MIA PaCa-2 [20] = experiment: Antiproliferative activity against human MIA PaCa-2 cells assessed as cell growth inhibition incubated for 72 hrs by MTT assay; type: functional
A-431 [21] = experiment: Antiproliferative activity against human A-431 cells assessed as cell growth inhibition at 25 uM incubated for 72 hrs by MTT assay relative to control; type: functional
BE(2)-C [22] = experiment: Antiproliferative activity against human BE2C cells assessed as cell growth inhibition incubated for 72 hrs by MTT assay; type: functional
Tubulin (Homo sapiens) [23] = biological target: T1, Tubulin (Homo sapiens) (UniProt P68371+Q9H4B7+P0DPH7+P68366+Q13509+Q71U36+P04350+Q3ZCM7+P07437+P68363+Q9BQE3+Q6PEY2+Q13885+Q9BVA1+Q9BUF5); experiment: Inhibition of tubulin (unknown origin) polymerization assessed as reduction microtubule formation at 10 uM by fluorometric analysis; type: protein-complex assay
Tubulin (Homo sapiens) [24] = biological target: T1, Tubulin (Homo sapiens); experiment: Induction of tubulin (unknown origin) polymerization assessed as microtubule formation by measuring increase in fluorescence at 10 uM by fluorometric analysis; type: protein-complex assay

| SMILES | GI50 at 72 h [1] [µM] | inhibition at 25 µM (BE(2)-C [2]) [%] | inhibition at 25 µM (MIA PaCa-2 [3]) [%] | GI50 (NCI-H460 [4]) [µM] | GI50 [5] [µM] | inhibition at 25 µM (MCF7 [6]) [%] | GI50 (U-87 MG [7]) [µM] | inhibition at 25 µM (A2780 [8]) [%] | GI50 (HT-29 [9]) [µM] | inhibition at 25 µM (HT-29 [10]) [%] | GI50 (A-431 [11]) [µM] | inhibition at 72 h, 25 µM [12] [%] | GI50 (DU-145 [13]) [µM] | inhibition at 25 µM (NCI-H460 [14]) [%] | GI50 (A2780 [15]) [µM] | inhibition at 25 µM (U-87 MG [16]) [%] | inhibition at 25 µM (DU-145 [17]) [%] | GI50 (MCF7 [18]) [µM] | inhibition at 25 µM [19] [%] | GI50 (MIA PaCa-2 [20]) [µM] | also measured |
| --- | --- | --- | --- | --- | --- | --- | --- | --- | --- | --- | --- | --- | --- | --- | --- | --- | --- | --- | --- | --- | --- |
| COc1ccc(/C=C/c2nc3ccccc3c(=O)[nH]2)cc1 | 11 | 66 | 67 | 11 | 6.4 | > 100 | > 50 | 66 | 3.8 | 78 | 33 | 60 | 45 | 60 | 12 | 24 | 41 | 2.6 | 89 | 5.5 | inhibition at 25 µM (A-431 [21]): 45%; GI50 (BE(2)-C [22]): 4.4 µM; inhibition (Tubulin (Homo sapiens) [23]): Active |
| O=C1NC(CCc2ccccc2)Nc2ccccc21 (centres undefined) | 14 | 19 | 27 | 12 | 16 | 38 | 19 | 29 | 3.5 | 29 | 3.6 | 23 | 17 | < 10 | 3.9 | < 10 | 27 | 14 | 16 | 13 | Activity (Tubulin (Homo sapiens) [24]; filed as activator): Active; inhibition at 25 µM (A-431 [21]): 14%; GI50 (BE(2)-C [22]): 3.6 µM |
| O=C1NC(/C=C/c2ccccc2[N+](=O)[O-])Nc2ccccc21 (centres undefined) |  | 53 | 32 |  |  | 55 |  | 69 |  | 37 |  | 13 |  | 35 |  | 24 | 66 |  | 81 |  | Activity (Tubulin (Homo sapiens) [24]): inactive; inhibition at 25 µM (A-431 [21]): 40% |
| O=c1[nH]c(/C=C/c2ccccc2)nc2ccccc12 | 2.3 | > 100 | 96 | 2.5 | 2.2 | > 100 | 2.7 | > 100 | 0.4 | > 100 | 0.64 | > 100 | 2.4 | > 100 | 0.45 | > 100 | > 100 | 1.3 | > 100 | 2.3 | Activity (Tubulin (Homo sapiens) [24]): inactive; inhibition at 25 µM (A-431 [21]): > 100%; GI50 (BE(2)-C [22]): 0.5 µM |
| COc1cccc(/C=C/c2nc3ccccc3c(=O)[nH]2)c1 | 2.2 | 99 | 93 | 2.2 | 2.8 | > 100 | 10 | > 100 | 0.9 | > 100 | 2.6 | 95 | 3.9 | > 100 | 2.6 | 75 | 78 | 0.47 | 100 | 2.9 | Activity (Tubulin (Homo sapiens) [24]): inactive; inhibition at 25 µM (A-431 [21]): > 100%; GI50 (BE(2)-C [22]): 2.1 µM |
| CC(=O)O[C@H]1C(=O)[C@@]2(C)[C@H]([C@H](OC(=O)c3ccccc3)[C@]3(O)C[C@H](OC(=O)[C@H](O)[C@@H](NC(=O)c4ccccc4)c4ccccc4)C(C)=C1C3(C)C)[C@]1(OC(C)=O)CO[C@@H]1C[C@@H]2O |  |  |  |  |  |  |  |  |  |  |  |  |  |  |  |  |  |  |  |  | Activity (Tubulin (Homo sapiens) [24]; filed as activator): Active |
| Cc1ccc2[nH]cc(-c3nc4ccccc4c(=O)[nH]3)c2c1 | 1.2 |  |  | 3.7 | > 50 |  | 16 |  | 0.39 |  | 0.57 |  | > 50 |  | 1.3 |  |  | 0.28 |  | 1 | Activity (Tubulin (Homo sapiens) [24]; filed as activator): Active; GI50 (BE(2)-C [22]): 0.63 µM |
| COc1cccc(C2NC(=O)c3ccccc3N2)c1 (centres undefined) | 3.2 | > 100 | 94 | 3.3 | 3.3 | 85 | 2.7 | 100 | 1.7 | > 100 | 2.1 | > 100 | 2.3 | 100 | 2.6 | 99 | > 100 | 5.8 | > 100 | 4.1 | inhibition at 25 µM (A-431 [21]): > 100%; GI50 (BE(2)-C [22]): 2.3 µM |
| CCCCCCCCC1NC(=O)c2ccccc2N1 (centres undefined) | 11 | 85 | 75 | 14 | 13 | > 100 | > 50 | 96 | 13 | 93 | 7.1 | 80 | > 50 | 61 | 4.2 | 39 | 53 | 2.9 | 77 | 12 | inhibition at 25 µM (A-431 [21]): 91%; GI50 (BE(2)-C [22]): 9.2 µM |
| O=c1[nH]c(/C=C/c2cccc(O)c2)nc2ccccc12 | 3.1 | > 100 | > 100 | 2.6 | 2.5 | > 100 | 8.9 | > 100 | 5.9 | > 100 | 3 | 97 | 1.9 | > 100 | 3.1 | 73 | > 100 | 1.3 | > 100 | 2.9 | inhibition at 25 µM (A-431 [21]): > 100%; GI50 (BE(2)-C [22]): 1.8 µM |
| O=c1[nH]c(/C=C/c2ccc(O)cc2)nc2ccccc12 | 0.38 | > 100 | > 100 | 0.37 | 0.29 | > 100 | 0.48 | > 100 | 0.35 | > 100 | 0.28 | > 100 | 0.35 | > 100 | 0.3 | > 100 | > 100 | 0.22 | > 100 | 0.34 | inhibition at 25 µM (A-431 [21]): > 100%; GI50 (BE(2)-C [22]): 0.25 µM |
| O=c1[nH]c(/C=C/c2ccc(Br)cc2)nc2ccccc12 | 4.6 | 78 | 68 | 11 | 15 | > 100 | 13 | 93 | 3.2 | 94 | 11 | 86 | 8.9 | 70 | 3.6 | 83 | 77 | 3.1 | 76 | 14 | inhibition at 25 µM (A-431 [21]): 78%; GI50 (BE(2)-C [22]): 6.4 µM |
| CC(C)(C)c1ccc(C2NC(=O)c3ccccc3N2)cc1 (centres undefined) | 19 | 47 | 60 | > 50 | > 50 | > 100 | > 50 | 63 | 9.7 | 79 | > 50 | 53 | 35 | 44 | 15 | 40 | 47 | 8.4 | 46 | 14 | inhibition at 25 µM (A-431 [21]): 32%; GI50 (BE(2)-C [22]): 20 µM |
